Laboratory results from PubChem BioAssay (NCI).
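Interpolation was linear, between the two tested concentrations surrounding the appropriate level; five concentrations were tested over 48 hours in 96-well plates. GI50 marks 50% less growth. TGI denotes the concentration required for complete inhibition of growth.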

How the values were obtained:
Experiment in all cases: NCI tumour cell line growth inhibition, 48 h
[1] = tested on: MDA-MB-231 breast
[2] = tested on: SNB-19 CNS
[3] = tested on: MALME-3M melanoma
[4] = tested on: NCI-H226 lung
[5] = tested on: NCI-H460 lung
[6] = tested on: SF-539 CNS
[7] = tested on: HL-60(TB) leukemia
[8] = tested on: SNB-75 CNS
[9] = tested on: M14 melanoma
[10] = tested on: COLO 205 colon
[11] = tested on: RXF 393 renal

| Structure (SMILES) | GI50 [1] | TGI [1] | GI50 [2] | TGI [2] | GI50 [3] | TGI [3] | GI50 [4] | TGI [4] | GI50 [5] | TGI [5] | GI50 [6] | TGI [6] | GI50 [7] | TGI [7] | GI50 [8] | TGI [8] | GI50 [9] | TGI [9] | TGI [10] | TGI [11] |
| --- | --- | --- | --- | --- | --- | --- | --- | --- | --- | --- | --- | --- | --- | --- | --- | --- | --- | --- | --- | --- |
| CCCCCCCCCCCCCCCCCCOc1ccccc1CC(=O)OCC[N+]1(C)CCCCC1 | 1.83 µM | 3.89 µM | 2.05 µM | 4.94 µM | 1.97 µM | 4.86 µM | 2.18 µM | 6.25 µM | 2.34 µM | 5.43 µM | 1.97 µM | 3.89 µM | 1.92 µM | 4.36 µM | 1.39 µM | 3.72 µM | 2.52 µM | 6.58 µM | – | – |
| O=C([O-])C[n+]1ccccc1 | – | > 100 µM | – | > 100 µM | – | > 100 µM | – | > 100 µM | – | > 100 µM | – | > 100 µM | – | > 100 µM | – | > 100 µM | – | > 100 µM | > 100 µM | > 100 µM |
| CN(CCCCCl)P(=O)(OCc1ccc([N+](=O)[O-])o1)OC[C@H]1O[C@@H](n2cc(F)c(=O)[nH]c2=O)C[C@@H]1O (some centres not stated) | – | 34.2 µM | – | > 55.3 µM | – | 36.1 µM | – | > 86.6 µM | – | 45.5 µM | – | 0.217 µM | – | > 23.6 µM | – | 6.95 µM | – | 20 µM | 16.5 µM | 17.4 µM |
| NN(CC(=O)O)CC(=O)O | – | > 100 µM | – | > 100 µM | – | > 100 µM | – | > 100 µM | – | > 100 µM | – | > 100 µM | – | > 100 µM | – | – | – | > 100 µM | > 100 µM | – |
| O=C(O)c1cc([N+](=O)[O-])cc2c(=O)c3cnccc3[nH]c12 | – | > 100 µM | – | > 100 µM | – | > 100 µM | – | > 100 µM | – | > 100 µM | – | – | – | > 100 µM | – | > 100 µM | – | > 100 µM | > 100 µM | > 100 µM |
| Nc1ncnc2nc[nH]c12 | – | – | 105 µM | > 146 µM | 86 µM | > 232 µM | – | > 250 µM | 21.3 µM | > 250 µM | – | > 250 µM | – | 228 µM | – | > 155 µM | – | – | > 221 µM | 88 µM |
| Nc1ncnc2c1ncn2C=C=CCO | – | > 100 µM | – | > 100 µM | – | > 100 µM | – | > 100 µM | – | > 100 µM | – | – | – | – | – | > 100 µM | – | > 100 µM | > 100 µM | > 100 µM |
| CCOc1ccc(NC(=O)C(=O)CC(=O)c2sc(NNC(C)=O)nc2C)cc1 | – | – | – | > 100 µM | – | – | – | > 100 µM | – | > 100 µM | – | > 100 µM | – | > 100 µM | – | > 100 µM | – | > 100 µM | > 100 µM | > 100 µM |
| COc1cc2c(c(O)c1OC)-c1c(cc(OC)c(OC)c1OC)CC(C)C(C)C2 (configuration not stated) | – | > 100 µM | – | > 100 µM | – | > 100 µM | – | > 100 µM | – | > 100 µM | – | > 100 µM | – | 55.2 µM | – | > 100 µM | – | > 100 µM | > 100 µM | > 100 µM |
| CC(C)=CCC/C(C)=C/CC/C(C)=C/CC/C(C)=C/C=C/C=C(\C)CC/C=C(\C)CC/C=C(\C)CCC=C(C)C | – | > 100 µM | – | > 100 µM | – | > 100 µM | – | > 100 µM | – | > 58.4 µM | – | > 100 µM | – | 4.96 µM | – | > 100 µM | – | > 100 µM | > 100 µM | > 100 µM |
| CCOC(=O)C1=C(C)OC2(O)C=CC(O)=C3C(=O)N(c4ccccc4)C(=O)C312 (configuration not stated) | – | > 100 µM | – | 65.3 µM | – | 41.7 µM | – | 80.3 µM | – | > 100 µM | – | 68.2 µM | – | > 100 µM | – | 87.8 µM | – | > 100 µM | > 100 µM | 47.7 µM |
| CN1CCOC(c2ccc(Cl)cc2)O1 (configuration not stated) | – | > 100 µM | – | > 100 µM | – | > 100 µM | – | > 100 µM | – | > 100 µM | – | > 100 µM | – | – | – | > 100 µM | – | > 100 µM | > 100 µM | > 100 µM |
| C=C1c2ccccc2C(=O)c2c1c1c(C(=O)OC)c(O)ccc1n2Cc1ccccc1 | – | 1.54 µM | – | 1.52 µM | – | 1.18 µM | – | – | – | 2.34 µM | – | 0.657 µM | – | 0.857 µM | – | 0.899 µM | – | 1.03 µM | 3.72 µM | 0.976 µM |
